Series [1] deals with T1, Recombinant human tyrosyl-DNA-phosphodiesterase 1 (Tdp1) (Homo sapiens, UniProt Q9NUW8).
T1 construct: made in house; host or cells: Escherichia coli
In words: Tdp1 inhibition, removal of BHQ1 quencher from 3'-end of FAM-labelled oligonucleotide (fluorescence). The series is classed as biochemical. The settings on record: 1.3 nM Tdp1, 50 nM oligonucleotide, pH 8.0; read-out: IC50 (concentration of an inhibitor that reduces an enzyme's activity by half) towards Tdp1. From the text: Recombinant human tyrosyl-DNA-phosphodiesterase 1 (EC number 3.1.4.) was expressed in an Escherichia coli system (plasmid pET 16B-Tdp1 provided by Dr. K. W. Caldecott, Sussex University, UK) and isolated as described in [2, 32]. The reaction of removing Black Hole Quencher 1 (BHQ1) from 3′-end of an oligonucleotide, catalyzed by Tdp1, is used as the test system for determining the inhibitory properties of the test compounds. At the 5′-end of an oligonucleotide there is (5,6)-FAM, a fluorophore whose fluorescence intensity increases after removing the quencher. POLARstar OPTIMA fluorimeter (BMG LABTECH) was used to measure fluorescence.
The reaction mixtures (volume 200 μl) contained the buffer (50 mM Tris-HCl, pH 8.0; 50 mM NaCl; 7 mM mercaptoethanol), 50 nM oligonucleotide and different concentrations of the inhibitor. The reaction was initiated by adding Tdp1 to a final concentration of 1.3 nM. The measurements were performed in linear range of dependence of reaction rate to time (up to 8 minutes) each 55 seconds. The action of the disclosed compounds was assessed by IC50 value (concentration of an inhibitor that reduces an enzyme's activity by half). IC50 value was calculated using MARS Data Analisys 2.0 software (BMG LABTECH).
A typical curve of relation of inhibitor concentration to the rate of reaction, catalyzed by Tdp1, is presented at FIG. 2.

Series [2] is described as follows: Acute toxicity in mice, single oral administration. The settings on record: CD-1, mouse, in vivo, oral; per os, male mice, single dose. On the procedure:
(§1) Assessment of acute toxicity of the disclosed compound was performed using outbred male CD-1 mice with SPF status. The test compound was administered in 62.5 mg/kg, 125 mg/kg, 250 mg/kg, 500 mg/kg, 1000 mg/kg, 2000 mg/kg and 5000 mg/kg doses (5 animals per group) in 0.5 ml volume once orally as a suspension in 0.5% aqueous solution of carboxymethyl cellulose.

For a further series, the system named is outbred male CD-1 mice. In words: Acute toxicity in mice, single oral administration. The settings on record: male, CD-1, mouse, in vivo. On the procedure:
as §1

Each structure is given as a SMILES string.

These results are taken from patent US10399965B2 (INNOVATIVE PHARMACOLOGY RESEARCH OOO (IPHAR), priority 2016, dated 2019).

In general, LD50 refers to the dose expected to kill half of the subjects tested.

T1 sequence (Q9NUW8 whole entry): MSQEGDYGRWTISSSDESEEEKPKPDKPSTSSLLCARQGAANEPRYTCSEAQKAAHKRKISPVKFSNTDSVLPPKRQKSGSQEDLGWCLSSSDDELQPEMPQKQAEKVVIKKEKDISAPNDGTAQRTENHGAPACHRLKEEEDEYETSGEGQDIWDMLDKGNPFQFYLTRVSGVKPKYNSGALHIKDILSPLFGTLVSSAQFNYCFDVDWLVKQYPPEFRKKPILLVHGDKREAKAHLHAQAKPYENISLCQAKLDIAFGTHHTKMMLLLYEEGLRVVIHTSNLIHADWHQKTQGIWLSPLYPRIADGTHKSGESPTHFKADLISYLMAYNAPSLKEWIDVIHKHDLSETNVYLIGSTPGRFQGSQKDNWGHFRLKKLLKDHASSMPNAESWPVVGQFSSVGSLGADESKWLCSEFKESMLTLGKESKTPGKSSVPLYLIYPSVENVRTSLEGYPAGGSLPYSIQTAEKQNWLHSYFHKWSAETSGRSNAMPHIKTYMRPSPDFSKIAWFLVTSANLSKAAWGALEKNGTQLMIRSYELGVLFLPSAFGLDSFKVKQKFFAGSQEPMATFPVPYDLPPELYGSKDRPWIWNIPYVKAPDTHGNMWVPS

As for `CC(=O)C1=C(O)C=C2Oc3c(-c4csc(N/N=C/c5ccc(Br)cc5)n4)c(O)c(C)c(O)c3C2(C)C1=O` (stereo not drawn) [Compound I, 2-acetyl-6-(2-(2-(4-bromobenzylidene)hydrazinyl)thiazole-4-yl)-3,7,9-trihydroxy-8,9b-dimethyldibenzo[b,d] furan-1(9bh)-one], in series [1], the IC50 was 26 ± 11 nM. This compound showed an LD50 in series [2] greater than 5000 mg/kg. Besides, in the series with outbred male CD-1 mice, the maximal tolerated dose result is listed as “no less than 5000 mg/kg”.
